From patent publication US6723331B1, “Termite-controlling agent and a controlling method thereof” (Sumitomo Chemical Company, Limited, priority 1992, dated 2004)
Where two headings read alike, the source gives them in different places.

System: Formosan subterranean termites (Coptotermes formosanus)
Experiment: whole plant or invertebrate
Conditions: soil, 72 h
Protocol: The emulsifiable concentrates obtained in Formulation Examples 1, 2 and 3 were each diluted with distilled water to a predetermined concentration. Five milliliters of every dilute chemicals solution was added to 100 g of sandy loam previously heat-sterilized, and the mixture was thoroughly mixed to prepare a test soil. This test soil was stored at 40° C. under a dark condition. After storage for a predetermined period of time (2 months and 3 months), about 15 g of the test soil was put in a plastic dish (diameter, 9 cm; height, 2 cm) and wetted. Twenty workers of Formosan subterranean termites (Coptotermes formosanus) were liberated in the plastic dish. After the dish was kept at room temperature for 3 days, the condition of the termites was observed.
For comparison, the same test was also carried out using each of fenvalerate and MGK 264.
The same test as in Test Example 1 was carried out using the emulsifiable concentrates obtained in Formulation Examples 6 and 7.
For comparison, the same test was also carried out using each of permethrin and MGK 264.

[1] = read-out: Mortality (%) after 3 days

For CC(C)C(C(=O)OC(C#N)c1cccc(Oc2ccccc2)c1)c1ccc(Cl)cc1 (stereo not drawn) [Fenvalerate, α-cyano-3-phenoxy-benzyl-2-(4-chlorophenyl)-3-methylbutyrate], the mortality at 125 ppm (read-out: Mortality (%) after 3 days, 125 ppm, treated soil stored 2 months at 40° C., Table 1) was 0%, the mortality at 125 ppm (read-out: Mortality (%) after 3 days, 125 ppm, treated soil stored 3 months at 40° C., Table 1) was 0% and the mortality at 250 ppm (read-out: Mortality (%) after 3 days, 250 ppm, treated soil stored 2 months at 40° C., Table 1) was 0%. The mortality at 250 ppm (read-out: Mortality (%) after 3 days, 250 ppm, treated soil stored 3 months at 40° C., Table 1) was 0%.
CCCCC(CC)CN1C(=O)C2C3C=CC(C3)C2C1=O (centres unmarked) [MGK 264, N-(2-ethylhexyl)bicyclo[2.2.1]hept-5-en-2,3-dicarboximide] showed a mortality at 500 ppm [1] of 0% and a mortality at 1000 ppm [1] of 0%.
CC1(C)C(C=C(Cl)Cl)C1C(=O)OCc1cccc(Oc2ccccc2)c1 (centres unmarked) [Permethrin, 3-phenoxybenzyl 3-(2,2-dichlorovinyl)-2,2-dimethylcyclopropanecarboxylate] gave a mortality at 125 ppm (read-out: Mortality (%) after 3 days, 125 ppm, treated soil stored 2 months at 40° C., Table 2) of 80% and a mortality at 125 ppm (read-out: Mortality (%) after 3 days, 125 ppm, treated soil stored 3 months at 40° C., Table 2) of 30%.
